This is an account of results in the NIST ThermoML archive (doi:10.1016/j.fluid.2018.06.003).

Series [1] is described as follows: refractive index (Na D-line) (dimensionless); xn = mol fraction of the nth substance listed. The note with it: 298.15 K; 101 kPa; Liquid; Standard Abbe refractometry; x1 = 0.3336.
Series [2] can be described thus: xn = mol fraction of the nth substance listed. The conditions noted are these: 298.15 K; 101 kPa; Liquid; Vibrating tube method; x1 = 0.3336.

Numbers after ± are expanded uncertainties.

On to `C[N+](C)(C)C.[Cl-]` [tetramethylammonium chloride] + OCC(O)CO, for which the refractive index in series [1] was 1.47183 ± 0.00044. Also, in series [2], the mass density was determined as 1145.22 ± 2.1 kg/m3.

For orientation: refractive index means the speed of light in vacuum divided by its phase velocity in the sample. As usually defined, the mass density is mass per unit of volume.
